Several values for one entry are separate records, joined by “and”; a condition that tells them apart may be missing. Equal entries are not always repeated. Where two headings read alike, the source gives them in different places. Marks after values point to notes of the source that are not given here.
Experiments:
dung-breeding flies = conditions: cattle, cited from earlier work
[1] = Tolerability of daily oral cyromazine in horses; assay type: in vivo, horse; conditions: 600 mg daily oral by top-dressing feed
Method: (§1) Cyromazine (2-cycloproplyamino-4,6-diamino-s-triazine) was obtained as a purified chemical composition at greater than 98% cyromazine (technical cyromazine). 600 mg of cyromazine was orally administered to each horse daily by top-dressing horse feed, for a continuous daily administration during fly season. In this example, horses residing in North Carolina, U.S. were treated during the local fly season, lasting approximately March through October of the calendar year.
(§2) In one study, cyromazine administration was stopped, and 5 manure samples were obtained from the same horse at 24, 48, 72, 96 and 120 hours post-dosing to monitor the duration of cyromazine at an insecticidal amount in the feces. In another study, single manure samples were collected from each individual horse (n=4) <24 hours after dosing with cyromazine, i.e., before another daily dose was given. Untreated control horse manure was collected from a nearby horse ranch. Samples were shipped and kept in the refrigerator until the house fly bioassay was set-up.

[2] = system: Musca domestica (Hilmer Strain) eggs; assay: House fly bioassay: larval hatch from 50 eggs; assay type: in vivo; conditions: for Larval Hatch/50 Eggs, Rep 1-4: scored after 2 days
Method: as §1, §2
Approximately fifty (50) Musca domestica (Hilmer Strain) eggs <24 hours old were counted and placed on filter paper discs in each of four replicates (rep) per cyromazine treatment group or control. Each replicate was covered with a paper towel and placed in the environmental chamber at 80° F. (27° C.), 80% relative humidity and a 14:10 (light:dark) photoperiod. The eggs were scored for larval hatch after two days and a layer of wood shavings added as a moisture barrier and a dry substrate for pupation.
(§3) The percent larval hatch, adult fly emergence and corrected percent effect were calculated and recorded. The percentage of eggs hatching is calculated as the mean number of eggs hatched after 2 days per test divided by 50 (the total eggs input), and multiplied by 100. The percentage of adult fly emergence from larvae hatched (% larvae emerging as flies) is calculated as the mean number of adult flies emerging after 3 weeks per test divided by the mean number of larvae hatching on test day 2, and multiplied by 100. The percentage of larvae not developing is calculated as the mean number of larvae not developing per test divided by the mean number of larvae hatching on test day 2, and multiplied by 100. Thus, the data in Table 2 refers back to the data in Table 1, and the data in Table 4 refers back to the data in Table 3.

[3] = system: Musca domestica (Hilmer Strain) larvae; assay: House fly bioassay: adult fly emergence from larvae exposed to feces of cyromazine-treated horses; assay type: in vivo; conditions: for Adult Fly Emergence from Larvae Hatched, Rep 1-4: 600 mg/day oral, after 3 weeks
Method: as §1, §2
The replicates containing hatched larvae were then returned to the environmental chamber in the presence of the test feces samples to determine the insecticidal effect of the cyromazine in the feces. Adult house fly emergence from larvae was determined after 3 weeks.
as §3

house fly = conditions: feed-through to fattening porkers, traditional pens with straw bedding; cited from earlier work
house flies = conditions: added to the feed of mink; cited from earlier work
[4] = in vivo; cited from earlier work
immature stages of flies = conditions: dairy calves, outdoor hutches, dose per body weight; cited from earlier work
[5] = horse Barney, <24 hours post-dosing group
[6] = horse Fancy, <24 hours post-dosing group
[7] = horse Phalete, <24 hours post-dosing group
[8] = horse Precious, <24 hours post-dosing group
[9] = same horse, 600 mg/day oral, 24 hours post-dosing group
[10] = same horse, 600 mg/day oral, 48 hours post-dosing group
[11] = same horse, 600 mg/day oral, 72 hours post-dosing group
[12] = same horse, 600 mg/day oral, 96 hours post-dosing group
[13] = same horse, 600 mg/day oral, 120 hours post-dosing group
[14] = 120 hour sample (4 reps), first study
[15] = feces of horse Barney, <24 hours post-dosing
[16] = feces of horse Fancy, <24 hours post-dosing
[17] = feces of horse Phalete, <24 hours post-dosing
[18] = feces of horse Precious, <24 hours post-dosing
[19] = horse feces 24 hours post-dosing
[20] = horse feces 48 hours post-dosing
[21] = horse feces 72 hours post-dosing
[22] = horse feces 96 hours post-dosing
[23] = horse feces 120 hours post-dosing

SMILES: COC(C)(C)CCC[C@H](C)C/C=C/C(C)=C/C(=O)OC(C)C (racemic) [methoprene]
- inhibition of development in manure (dung-breeding flies; drinking water): Complete inhibition of development in manure
- inhibition of development in manure (dung-breeding flies; mineral blocks): Complete inhibition of development in manure

SMILES: Nc1nc(N)nc(NC2CC2)n1 [cyromazine, 2-cyclopropylamino-4,6-diamino-s-triazine]
- tolerability, side effects [1]: well tolerated at this dosage, and no side effects were seen
- Larval Hatch/50 Eggs, Rep 1-4 ([2]; horse Barney, 600 mg/day oral, <24 hours post-dosing group): 25 and 33 and 43 and 32
- % Eggs Hatching [2, 5]: 66.5%
- Larval Hatch/50 Eggs, Mean [2, 5]: 33.25
- Larval Hatch/50 Eggs, Σ [2, 5]: 133
- Larval Hatch/50 Eggs, Rep 1-4 ([2]; horse Fancy, 600 mg/day oral, <24 hours post-dosing group): 47 and 33 and 32 and 35
- % Eggs Hatching [2, 6]: 73.5%
- Larval Hatch/50 Eggs, Mean [2, 6]: 36.75
- Larval Hatch/50 Eggs, Σ [2, 6]: 147
- % Eggs Hatching [2, 7]: 83.5%
- Larval Hatch/50 Eggs, Mean [2, 7]: 41.75
- Larval Hatch/50 Eggs, Σ ([2]; horse Phalete, <24 hours post-dosing group, sum decreased by 7 (footnote)): 167*
- Larval Hatch/50 Eggs, Rep 1-4 ([2]; horse Precious, 600 mg/day oral, <24 hours post-dosing group): 49 and 37 and 44
- % Eggs Hatching [2, 8]: 89.5%
- Larval Hatch/50 Eggs, Mean [2, 8]: 44.75
- Larval Hatch/50 Eggs, Σ [2, 8]: 179
- % Eggs Hatching [2, 9]: 82.5%
- Larval Hatch/50 Eggs, Mean [2, 9]: 41.25
- Larval Hatch/50 Eggs, Σ [2, 9]: 165
- Larval Hatch/50 Eggs, Rep 1-4 [2, 9]: 40 and 35 and 42 and 48
- % Eggs Hatching [2, 10]: 57.5%
- Larval Hatch/50 Eggs, Mean [2, 10]: 28.75
- Larval Hatch/50 Eggs, Σ [2, 10]: 115
- Larval Hatch/50 Eggs, Rep 1-4 [2, 10]: 31 and 21 and 30 and 33
- % Eggs Hatching [2, 11]: 50.5%
- Larval Hatch/50 Eggs, Mean [2, 11]: 25.25
- Larval Hatch/50 Eggs, Σ [2, 11]: 101
- Larval Hatch/50 Eggs, Rep 1-4 [2, 11]: 27 and 35 and 18 and 21
- % Eggs Hatching [2, 12]: 75.0%
- Larval Hatch/50 Eggs, Mean [2, 12]: 37.50
- Larval Hatch/50 Eggs, Σ [2, 12]: 150
- Larval Hatch/50 Eggs, Rep 1-4 [2, 12]: 40 and 38 and 34
- % Eggs Hatching [2, 13]: 61.0%
- Larval Hatch/50 Eggs, Mean [2, 13]: 30.50
- Larval Hatch/50 Eggs, Σ [2, 13]: 122
- Larval Hatch/50 Eggs, Rep 1-4 [2, 13]: 38 and 25 and 31 and 28
- flies emerged [3, 14]: 1
- flies emerged, percent [3, 14]: 0.2%
- insecticidal amount in the feces ([3]; feces obtained at 24, 48, 72, 96 and 120 hours post-dosing): An insecticidal amount of cyromazine was present in the feces
- Adult Fly Emergence from Larvae Hatched, Rep 1-4 [3, 15]: 0
- # Larvae not Developing [3, 15]: 133
- % Larvae Emerging as Flies [3, 15]: 0%
- % Larvae not Developing [3, 15]: 100.0%
- Adult Fly Emergence from Larvae Hatched, Σ [3, 15]: 0
- Adult Fly Emergence from Larvae Hatched, Rep 1-4 [3, 16]: 0
- # Larvae not Developing [3, 16]: 147
- % Larvae Emerging as Flies [3, 16]: 0%
- % Larvae not Developing [3, 16]: 100.0%
- Adult Fly Emergence from Larvae Hatched, Σ [3, 16]: 0
- Adult Fly Emergence from Larvae Hatched, Rep 1-4 [3, 17]: 0
- # Larvae not Developing [3, 17]: 167
- % Larvae Emerging as Flies [3, 17]: 0%
- % Larvae not Developing [3, 17]: 100.0%
- Adult Fly Emergence from Larvae Hatched, Σ [3, 17]: 0
- Adult Fly Emergence from Larvae Hatched, Rep 1-4 [3, 18]: 0
- # Larvae not Developing [3, 18]: 179
- % Larvae Emerging as Flies [3, 18]: 0%
- % Larvae not Developing [3, 18]: 100.0%
- Adult Fly Emergence from Larvae Hatched, Σ [3, 18]: 0
- adult fly emergence from hatched larvae ([3]; first study, same horse sampled at 5 time points): completely inhibited adult fly emergence
- # Larvae not Developing [3, 19]: 165
- % Larvae Emerging as Flies [3, 19]: 0%
- % Larvae not Developing [3, 19]: 100.0%
- Adult Fly Emergence from Larvae Hatched, Σ [3, 19]: 0
- Adult Fly Emergence from Larvae Hatched, Rep 1-4 [3, 19]: 0
- # Larvae not Developing [3, 20]: 115
- % Larvae Emerging as Flies [3, 20]: 0%
- % Larvae not Developing [3, 20]: 100.0%
- Adult Fly Emergence from Larvae Hatched, Σ [3, 20]: 0
- Adult Fly Emergence from Larvae Hatched, Rep 1-4 [3, 20]: 0
- # Larvae not Developing [3, 21]: 101
- % Larvae Emerging as Flies [3, 21]: 0%
- % Larvae not Developing [3, 21]: 100.0%
- Adult Fly Emergence from Larvae Hatched, Σ [3, 21]: 0
- Adult Fly Emergence from Larvae Hatched, Rep 1-4 [3, 21]: 0
- # Larvae not Developing [3, 22]: 150
- % Larvae Emerging as Flies [3, 22]: 0%
- % Larvae not Developing [3, 22]: 100.0%
- Adult Fly Emergence from Larvae Hatched, Σ [3, 22]: 0
- Adult Fly Emergence from Larvae Hatched, Rep 1-4 [3, 22]: 0
- # Larvae not Developing [3, 23]: 121
- % Larvae Emerging as Flies [3, 23]: 0.8%
- % Larvae not Developing [3, 23]: 99.8%
- Adult Fly Emergence from Larvae Hatched, Σ [3, 23]: 1
- insecticidal activity of manure samples ([3]; horses orally administered cyromazine, feces without urine): high degree of insecticidal activity
- inhibition of house fly development ([3]; second study, all 4 horses, <24 hours post-dosing): 100%
- adult fly development (house fly): some adult flies did develop
- prevention of breeding of house flies (house flies): ineffective
- share of all cyromazine excreted found in urine [4]: 95%
- doses preventing development of immature stages of flies in straw bedding (immature stages of flies): 0.5 to 1.0 mg/kg
